Columns and labels:
[1] = Cytotoxicity in PBM cells; assay type: cell-based, human; conditions: human
Method: (§1) The toxicity of the compounds was assessed in Vero, human PBM, CEM (human lymphoblastoid), MT-2, and HepG2 cells, as described previously (see Schinazi R. F., Sommadossi J.-P., Saalmann V., Cannon D. L., Xie M.-Y., Hart G. C., Smith G. A. & Hahn E. F. Antimicrob. Agents Chemother. 1990, 34, 1061-67). Cycloheximide was included as positive cytotoxic control, and untreated cells exposed to solvent were included as negative controls. The cytotoxicity IC50 was obtained from the concentration-response curve using the median effective method described previously (see Chou T.-C. & Talalay P. Adv. Enzyme Regul. 1984, 22, 27-55; Belen'kii M. S. & Schinazi R. F. Antiviral Res. 1994, 25, 1-11).

[2] = Cytotoxicity in CEM cells; assay type: cell-based, human; conditions: human, CEM lymphoblastoid cells
Method: as §1

[3] = Cytotoxicity in Huh7 cells; assay type: cell-based; conditions: human
[4] = Cytotoxicity in Vero cells; conditions: African green monkey, Vero kidney cells
SARS-CoV-2 [5] = assay: Anti-SARS-CoV-2 activity in Vero cells (virus yield inhibition); assay type: cell-based
SARS-CoV-2 [6] = assay: Anti-SARS-CoV-2 activity in Calu3 cells (virus yield inhibition); assay type: cell-based; conditions: Severe acute respiratory syndrome coronavirus 2, Calu-3, Table 1
SARS-CoV-2 [7] = assay: Anti-SARS-CoV-2 activity in Calu3 ALI culture; assay type: cell-based; conditions: Severe acute respiratory syndrome coronavirus 2, Calu-3; Calu3 air-liquid interface
SARS-CoV-2 [8] = assay: Anti-SARS-CoV-2 activity in HAE-ALI culture; assay type: cell-based; conditions: Severe acute respiratory syndrome coronavirus 2; HAE air-liquid interface
human PBM cells = assay: Cytotoxicity in PBM cells; assay type: cell-based
Method: as §1

[9] = test system: CEM (human lymphoblastoid) cells; assay: Cytotoxicity in CEM cells; assay type: cell-based
Method: as §1

Huh7 cells = assay: Cytotoxicity in Huh7 cells; assay type: cell-based
SARS-CoV-2 [10] = assay: Anti-SARS-CoV-2 activity in Caco2 cells (virus yield inhibition); conditions: for EC50: Severe acute respiratory syndrome coronavirus 2, Caco-2, read-out: Anti-SARS-CoV-2 Activity (Caco2) EC50; for EC90: Severe acute respiratory syndrome coronavirus 2, Caco-2, read-out: Anti-SARS-CoV-2 Activity (Caco2) EC90
Omicron [11] = assay: Anti-Omicron activity in Calu-3; assay type: cell-based, SARS-CoV-2; conditions: Severe acute respiratory syndrome coronavirus 2
Omicron [12] = assay: microbe, parasite or virus in culture
Vero cells = assay: Cytotoxicity in Vero cells; conditions: read-out: Cytotoxicity CC50 Vero; Vero cells
[13] = assay type: in vitro ADME; conditions: hamster, 10 μM
Method: An aliquot of 450 μL of human, mouse or hamster plasma were exposed to 10 μM of compound and incubated at 37° C. At 0, 5, 15, 30, 60, 90 and 120 min, 50 μL of plasma sample was mixed with 200 μL of ice-cold methanol (70%). 50 μL supernatant was dried and reconstituted in 100 μL H2O. Propantheline bromide was used as positive control. The supernatant was then subjected to LC-MS analysis (LC-MS condition: Instrument: Thermo TSQ Quantiva. Column: Kinetex […] (50×2.1 mm, […]). LC buffers: A): 0.1% formic acid, and B): acetonitrile. MRM methods: (269.2-112 positive), Indinavir (IS, 614.4-421.2 positive, IS)). The stability results are shown in FIGS. 2-4 (human plasma, mouse plasma and hamster plasma, respectively). Compound A is stable in human and mouse plasma up to 2 hours and stable up to […] in hamster plasma. Compound 23 was converted to compound A in hamster plasma in less than 5 min.

Calu3 cells = conditions: read-out: Cytotoxicity CC50 Calu3
Caco2 cells = conditions: read-out: Cytotoxicity CC50 Caco2
[14] = Severe acute respiratory syndrome coronavirus 2, Table 1, read-out: Anti-SARS-CoV-2 Activity (Vero) EC50
[15] = Severe acute respiratory syndrome coronavirus 2, Table 1, read-out: Anti-SARS-CoV-2 Activity (Vero) EC90
[16] = Severe acute respiratory syndrome coronavirus 2, Table 2, read-out: Anti-SARS-CoV-2 activity in Vero cells EC50
[17] = Severe acute respiratory syndrome coronavirus 2, Table 2, read-out: Anti-SARS-CoV-2 activity in Vero cells EC90

Compound | CC50 [4] [µM] | EC50 (SARS-CoV-2 [5]; [14]) [µM] | EC90 (SARS-CoV-2 [5]; [15]) [µM] | EC90 (SARS-CoV-2 [6]) [µM] | EC50 (SARS-CoV-2 [10]) [µM] | EC90 (SARS-CoV-2 [10]) [µM] | EC50 (SARS-CoV-2 [6]) [µM] | also measured
CC(C)C(=O)OC[C@H]1O[C@@](C#N)(n2ccc(=O)[nH]c2=O)C(O)C1O (stereo partly shown) [drawing 132] | > 100 | – | – | – | – | – | – | CC50 [1]: > 100 µM; CC50 [2]: 39 µM; CC50 [3]: 88.9 µM
CCCCCCCC(=O)OC[C@H]1O[C@@](C#N)(n2ccc(N)nc2=O)C(O)C1O (stereo partly shown) [drawing 134] | 45.7 | – | – | – | – | – | – | CC50 [1]: > 100 µM; CC50 [2]: 3.7 µM; CC50 [3]: 77.8 µM
CCC(CC)COC(=O)[C@H](C)N[P@](=O)(OC[C@H]1O[C@@](C#N)(c2ccc3c(N)ncnn23)[C@H](O)[C@@H]1O)Oc1ccccc1 [Remdesivir, reference compound] | > 100 | 1 | 3.5 | 0.6 | 0.004 | 0.04 | – | EC50 (SARS-CoV-2 [5]; [16]): 1.2 µM; EC90 (SARS-CoV-2 [5]; [17]): 3.6 µM; EC50 (SARS-CoV-2 [7]): 0.9 µM; EC90 (SARS-CoV-2 [7]): 4.6 µM; EC90 (SARS-CoV-2 [8]): 1.2 µM; CC50 (human PBM cells): 6.4 µM; CC50 [9]: 12 µM; CC50 (Huh7 cells): 1.5 µM
CC(C)C(=O)OC[C@H]1O[C@@](C#N)(n2ccc(N)nc2=O)C(O)C1O (stereo partly shown) [drawing 133] | 73.8 | – | – | – | – | – | – | CC50 [1]: 63.1 µM; CC50 [2]: 15.8 µM; CC50 [3]: > 100 µM
N#C[C@@]1(n2ccc(=O)[nH]c2=O)O[C@H](CO)C(O)C1O (stereo partly shown) [drawing 137] | – | – | – | – | – | – | – | EC50 (Omicron [11]): 3.8 µM; EC90 (Omicron [11]): > 10 µM; EC50 (Omicron [12]; Severe acute respiratory syndrome coronavirus 2, Caco-2, read-out: Anti-Omicron Activity (Caco-2) EC50): > 10 µM; EC90 (Omicron [12]; Severe acute respiratory syndrome coronavirus 2, Caco-2, read-out: Anti-Omicron Activity (Caco-2) EC90): > 10 µM
CCCCCCCC(=O)OC[C@H]1O[C@@](C#N)(n2ccc(N)nc2=O)C(O)C1O (stereo partly shown) [drawing 123] | – | 0.4 | 1.1 | 1.2 | 0.7 | 1.7 | 0.2 | –
CCC(CC)COC(=O)[C@H](C)N[P@](=O)(OC[C@@H]1O[C@](C#N)(c2ccc3c(N)ncnn23)C(O)C1O)Oc1ccccc1 (stereo partly shown) | – | – | – | – | – | – | – | EC50 (SARS-CoV-2 [5]; [16]): < 10 µM
CC(C)C(=O)OC[C@H]1O[C@@](C#N)(n2ccc(N)nc2=O)C(O)C1O (stereo partly shown) [drawing 122] | – | 1.2 | 2.2 | 4 | 0.5 | 2.5 | 1.2 | –
CC(C)OC(=O)[C@H](C)N[P@](=O)(OC[C@H]1O[C@@](C#N)(n2ccc(N)nc2=O)C(O)C1O)Oc1ccccc1 (stereo partly shown) [drawing 131] | > 100 | – | – | – | – | – | – | CC50 [1]: > 100 µM; CC50 [2]: > 100 µM; CC50 [3]: > 100 µM
N#C[C@@]1(c2ccc3c(N)ncnn23)O[C@H](CO)C(O)C1O (stereo partly shown) | – | – | – | – | – | – | – | EC50 (SARS-CoV-2 [5]; [16]): < 10 µM
O=c1nc(NO)ccn1[C@@H]1O[C@H](CO)[C@@H](O)[C@H]1O [NHC, N^4-hydroxycytidine, reference compound] | – | 0.2 | 0.42 | 2 | 1 | > 10 | 0.6 | CC50 [9]: 2.6 µM; CC50 (Vero cells): 16.5 µM
CC(C)C(=O)OC[C@H]1O[C@@](C#N)(n2ccc(=O)[nH]c2=O)C(O)C1O (stereo partly shown) [drawing 121] | – | > 10 | – | 0.7 | 2.1 | 5.7 | 0.2 | –
N#C[C@@]1(n2ccc(=O)[nH]c2=O)O[C@H](CO)C(O)C1O (stereo partly shown) [drawing 119] | – | 4.7 | 8.5 | 0.7 | 0.02 | 0.2 | 0.08 | –
CC(C)C(=O)OC[C@H]1O[C@@](C#N)(n2ccc(N)nc2=O)[C@H](O)[C@@H]1O [Compound 23, ((2R,3S,4R,5R)-5-(4-Amino-2-oxopyrimidin-1(2H)-yl)-5-cyano-3,4-dihydroxytetrahydro-furan-2-yl)methyl isobutyrate] | – | – | – | – | – | – | – | time for conversion to compound A in plasma [13]: less than 5 min
N#C[C@]1(c2ccc3c(N)ncnn23)O[C@@H](CO)C(O)C1O (stereo partly shown) | – | – | – | – | – | – | – | EC50 (SARS-CoV-2 [5]; [16]): > 10 µM
N#C[C@@]1(n2ccc(=O)[nH]c2=O)O[C@H](CO)C(O)C1O (stereo partly shown) [drawing 130] | > 100 | – | – | – | – | – | – | CC50 [1]: > 100 µM; CC50 [2]: 12.1 µM; CC50 [3]: > 100 µM
N#C[C@@]1(n2ncc(N)nc2=O)O[C@H](CO)C(O)C1O (stereo partly shown) | – | – | – | – | – | – | – | EC50 (SARS-CoV-2 [5]; [16]): 4 µM; EC90 (SARS-CoV-2 [5]; [17]): 9.8 µM
CC(C)[C@H](N)C(=O)OC1C(O)[C@](C#N)(n2ccc(N)nc2=O)O[C@@H]1CO (stereo partly shown) [drawing 135] | 93.5 | – | – | – | – | – | – | CC50 [1]: > 100 µM
CC(C)[C@H](N)C(=O)OC1C(O)[C@](C#N)(n2ccc(N)nc2=O)O[C@@H]1CO (stereo partly shown) [drawing 124] | – | 2.3 | 6.6 | 4.3 | 3.3 | 8.3 | 0.3 | –
C[C@@H]1C[C@@H]([C@H](O)CC2CC(=O)NC(=O)C2)C(=O)[C@@H](C)C1 [Cyclohexamide] | – | – | – | – | – | – | – | CC50 (Calu3 cells): 10 µM; CC50 (Caco2 cells): 10 µM
CC(C)OC(=O)[C@H](C)N[P@](=O)(OC[C@H]1O[C@@](C#N)(n2ccc(N)nc2=O)C(O)C1O)Oc1ccccc1 (stereo partly shown) [drawing 120] | – | > 10 | > 10 | > 10 | 0.7 | 2.1 | > 10 | –
